Common to all, as to assay type: cell-based
The subject of assay [1] is KG-1a cells. Nature of the assay: Cell viability assay (CellTiter Glo, 72 hours) in KG-1a cells. As to the method:
(§1) KG1a (CCL-246.1, ATCC) and CCRF-CEM (CCL-199, ATCC) cells were grown in RPMI-1640 media containing 10% FBS in T-75 flasks to a density of 1×10^6 cells per mL. Exponentially gown cells were used for the assay. Day 1: 7.5×10^3 cells were seeded in each well of 96 well plate. Day 2: Cells were treated with serial dilutions of each compound (starting 20 uM) or with DMSO as control for 72 hours. Day 5: CellTiter Glo (G9241, Promega) was added to the media of each well and measured by plate reader (Synergy 4, Biotek). Data analysis: Using GraphPad Prism 7 (GraphPad).
On the technique in general: ATP-based viability assays read luminescence as a measure of living cells.

The subject of assay [2] is CCRF-CEM cells. The experiment in a line: Cell viability assay (CellTiter Glo, 72 hours) in CEM cells. Here is the method:
as §1

Assay [3] has as its system DNMT-1. The experiment in a line: Western blot analysis of DNMT-1 in CEM cells. The conditions noted are these: DNMT-1 depletion in CEM cells, 96 hours. As to the method:
Cells were treated with serial dilutions of each compound (starting 100 uM for HCT-116 and NCI-H23 cells, and 20 uM for KG-1a and CCRF-CEM cells) or with DMSO as control for 96 hours. Cell lysates were collected and proteins were separated with a SDS-PAGE gel, transferred to a nitrocellulose membrane, blocked in 5% non-fat milk in TBS-T, and probed with anti DNMT-1 (1:7000) rabbit polyclonal antibodies (cat #ab19905, Abcam) in 5% non-fat milk in TBS-T overnight. Membranes were washed three times with TBS-T. The anti-rabbit IgG (7074p2, Cell Signaling) secondary antibody was added at a concentration of 1:5000 in 5% non-fat milk in TBS-T for two hours in room temperature. Membranes were then washed three times with TBS-T, 5 minutes each time. Membranes were then incubated with SuperSignal West Pico Chemiluminescent Substrate (#34080 Thermo) and exposed onto film. Membranes were stripped with stripping buffer (#21059, Thermo) and re-probed with mouse anti tubulin 1:10,000 (T9026, Sigma) and anti-mouse IgG 1:5,000 (70′76p2, Cell Signaling).
A general note: In western blotting, separated proteins are transferred to a membrane and probed.

[4] abbreviates: Homo sapiens, KG-1a, 72 h, read-out: Cell Line IC50 (μM) KG-1a.
The mark [5] stands for this setting: Homo sapiens, CCRF-CEM, 72 h, read-out: Cell Line IC50 (μM) CEM.
[6] abbreviates: read-out: Cell Line IC50 (μM) KG-1a.
Setting [7] is: read-out: Cell Line IC50 (μM) CEM.

Read-outs that look alike come from different tables or passages of the source.

19 molecules from patent US20210363170A1, “4'-THIO-NUCLEOTIDE AND -NUCLEOSIDE PRODRUGS FOR THE TREATMENT OF CANCER” (Southern Research Institute, priority 2018, published 2021) can be followed below.

On to `C[C@H](N[P@](=O)(OC[C@H]1S[C@@H](n2cnc(N)nc2=O)C[C@@H]1O)Oc1ccccc1)C(=O)OCc1ccccc1` [Compound 1, Benzyl ((S)-(((2R,3S,5R)-5-(4-amino-2-oxo-1,3,5-triazin-1(2H)-yl)-3-hydroxytetrahydrothiophen-2-yl)methoxy)(phenoxy)phosphoryl)-L-alaninate], for which the IC50 was found to be 0.92 µM in assay [1] (setting [4]), 0.13 µM in assay [2] (setting [5]) and 1200 nM in assay [3].
For `CC(C)OC(=O)[C@H](C)NP(=O)(OC[C@H]1S[C@@H](n2cnc(N)nc2=O)C[C@@H]1O)Oc1cccc2ccccc12` (single isomer, unassigned) [Compound 12 Diastereomer 1], the IC50 is 0.6 µM in assay [1] (setting [4]); 0.3 µM in assay [2] (listed as 12 Diastereomer 1, read-out: Cell Line IC50 (μM) CEM); 800 nM in assay [3] (listed as 12 Diastereomer 1).
Turning to `CC(C)OC(=O)[C@H](C)NP(=O)(OC[C@H]1S[C@@H](n2cnc(N)nc2=O)C[C@@H]1O)Oc1cccc2ccccc12` (single isomer, unassigned) [Compound 12 Diastereomer 2], the IC50 in assay [1] (setting [6]) was 0.7 µM; in assay [2] (listed as 12 Diastereomer 2, read-out: Cell Line IC50 (μM) CEM) it was 0.1 µM; in assay [3] (listed as 12 Diastereomer 2) it was 1000 nM.
As to `CCC(CC)COC(=O)[C@H](C)N[P@](=O)(OC[C@H]1S[C@@H](n2ccc(N)nc2=O)CC1O)Oc1ccccc1` (stereo partly drawn) [Compound 14], the half-inhibitory concentration (IC50) in assay [1] (setting [4]) came to 0.62 µM; in assay [2] (setting [5]), 0.15 µM; in assay [3], 1000 nM.
Regarding `C[C@H](NP(=O)(OC[C@H]1S[C@@H](n2cnc(N)nc2=O)CC1O)Oc1ccccc1)C(=O)OC1CCCC1` (single isomer, unassigned) [Compound 8 Diastereomer 2], the IC50 is 1.04 µM in assay [1] (setting [6]), 1.65 µM in assay [2] (setting [7]) and 450 nM in assay [3] (listed as 8 Diastereomer 2).
As for `C[C@H](NP(=O)(OC[C@H]1S[C@@H](n2cnc(N)nc2=O)CC1O)Oc1ccccc1)C(=O)OC1CCCC1` (single isomer, unassigned) [Compound 8 Diastereomer 1], the IC50 in assay [1] (setting [4]) was 0.6 µM; in assay [2] (setting [5]) it was 2.08 µM; in assay [3] (listed as 8 Diastereomer 1), 330 nM.
For the molecule `CC(C)COC(=O)[C@H](C)NP(=O)(OC[C@H]1S[C@@H](n2cnc(N)nc2=O)CC1O)Oc1cccc2ccccc12` (single isomer, unassigned) [Compound 10 Diastereomer 2], the IC50 in assay [1] (setting [6]) amounted to 0.3 µM; in assay [2] (setting [7]) it was 0.2 µM; in assay [3] (listed as 10 Diastereomer 2), 800 nM.
For the molecule `CC(C)COC(=O)[C@H](C)NP(=O)(OC[C@H]1S[C@@H](n2cnc(N)nc2=O)CC1O)Oc1cccc2ccccc12` (single isomer, unassigned) [Compound 10 Diastereomer 1], the IC50 worked out at 0.3 µM in assay [1] (setting [4]), 0.2 µM in assay [2] (setting [5]) and 600 nM in assay [3] (listed as 10 Diastereomer 1).
In the case of `COC(=O)[C@H](C)N[P@](=O)(OC[C@H]1S[C@@H](n2cnc(N)nc2=O)C[C@@H]1O)Oc1ccccc1` [Compound 5, Methyl ((S)-(((2R,3S,5R)-5-(4-amino-2-oxo-1,3,5-triazin-1(2H)-yl)-3-hydroxytetrahydrothiophen-2-yl)-methoxy)(phenoxy)-phosphoryl)-L-alaninate], the concentration for half-maximal inhibition (IC50) in assay [1] (setting [4]) is 1.67 µM; in assay [2] (setting [5]), 2.06 µM; in assay [3], 610 nM.
The like results for `C[C@H](N[P@](=O)(OC[C@H]1S[C@@H](n2cnc(N)nc2=O)C[C@@H]1O)Oc1ccccc1)C(=O)OCc1ccc([N+](=O)[O-])o1` [Compound 7, (5-nitrofuran-2-yl)methyl ((S)-(((2R,3S,5R)-5-(4-amino-2-oxo-1,3,5-triazin-1(2H)-yl)-3-hydroxytetrahydro-thiophen-2-yl)-methoxy)(phenoxy)-phosphoryl)-L-alaninate] were, in that order, 0.76 µM, 1.71 µM and 220 nM.
For `CC(C)OC(=O)[C@H](C)N[P@](=O)(OC[C@H]1S[C@@H](n2cnc(N)nc2=O)C[C@@H]1O)Oc1ccccc1` [Compound 4, Isopropyl ((S)-(((2R,3S,5R)-5-(4-amino-2-oxo-1,3,5-triazin-1(2H)-yl)-3-hydroxytetrahydrothiophen-2-yl)methoxy)(phenoxy)phosphoryl)-L-alaninate] the same measures were 0.57 µM, 0.24 µM and 850 nM.
Regarding `Nc1ccn([C@H]2C[C@@H](O)[C@@H](CO)S2)c(=O)n1` [T-dCyd, 4-amino-1-[(2R,4R,5R)-4-hydroxy-5-(hydroxymethyl)thiolan-2-yl]pyrimidin-2-one, reference compound], the IC50 in assay [1] (Homo sapiens, read-out: Cell Line IC50 (μM) KG-1a) was 0.48 µM; in assay [2] (Homo sapiens, CCRF-CEM, read-out: Cell Line IC50 (μM) CEM), 0.08 µM; in assay [3] it was 470 nM.
With `CCC(CC)COC(=O)[C@H](C)NP(=O)(OC[C@H]1S[C@@H](n2cnc(N)nc2=O)CC1O)Oc1cccc2ccccc12` (single isomer, unassigned) [Compound 11 Diastereomer 2], the values for the IC50 in assay [1] (setting [4]), in assay [2] (setting [5]) and in assay [3] were 0.6 µM, 0.08 µM and 500 nM, respectively.
The like results for `CC(C)OC(=O)[C@H](C)N[P@](=O)(OC[C@H]1S[C@@H](n2ccc(N)nc2=O)CC1O)Oc1ccccc1` (stereo partly drawn) [Compound 15] were, in that order, 0.9 µM, 0.37 µM and 330 nM.
Regarding `C[C@H](NP(=O)(OC[C@H]1S[C@@H](n2cnc(N)nc2=O)CC1O)Oc1cccc2ccccc12)C(=O)OCc1ccccc1` (single isomer, unassigned) [Compound 9 Diastereomer 2], the IC50 in assay [1] (listed as 9 Diastereomer 2, read-out: Cell Line IC50 (μM) KG-1a) amounted to 0.4 µM; in assay [2] (listed as 9 Diastereomer 2, read-out: Cell Line IC50 (μM) CEM), 0.2 µM; in assay [3] (listed as 9 Diastereomer 2), 1400 nM.
In the case of `CCOC(=O)[C@H](C)N[P@](=O)(OC[C@H]1S[C@@H](n2cnc(N)nc2=O)C[C@@H]1O)Oc1ccccc1` [Compound 6, Ethyl ((S)-(((2R,3S,5R)-5-(4-amino-2-oxo-1,3,5-triazin-1(2H)-yl)-3-hydroxytetrahydrothiophen-2-yl)-methoxy)(phenoxy)-phosphoryl)-L-alaninate], the half-maximal inhibitory concentration (IC50) in assay [1] (setting [4]) came out at 0.31 µM; in assay [2] (setting [5]), 1.73 µM; in assay [3], 350 nM.
For `CC(C)COC(=O)[C@H](C)N[P@](=O)(OC[C@H]1S[C@@H](n2cnc(N)nc2=O)C[C@@H]1O)Oc1ccccc1` [Compound 2, Isobutyl ((S)-(((2R,3S,5R)-5-(4-amino-2-oxo-1,3,5-triazin-1(2H)-yl)-3-hydroxytetrahydrothiophen-2-yl)methoxy)(phenoxy)phosphoryl)-L-alaninate], the IC50 in assay [1] (setting [4]) was found to be 1.34 µM; in assay [2] (setting [5]), 0.24 µM; in assay [3], 800 nM.
For `CCC(CC)COC(=O)[C@H](C)NP(=O)(OC[C@H]1S[C@@H](n2cnc(N)nc2=O)C[C@@H]1O)Oc1cccc2ccccc12` (single isomer, unassigned) [Compound 11 Diastereomer 1] the same measures were 0.6 µM, 0.2 µM and 500 nM.
Turning to `C[C@H](NP(=O)(OC[C@H]1S[C@@H](n2cnc(N)nc2=O)CC1O)Oc1cccc2ccccc12)C(=O)OCc1ccccc1` (single isomer, unassigned) [Compound 9 Diastereomer 1], the IC50 in assay [1] (listed as 9 Diastereomer 1, read-out: Cell Line IC50 (μM) KG-1a) is 1.1 µM; in assay [2] (listed as 9 Diastereomer 1, read-out: Cell Line IC50 (μM) CEM), 0.5 µM; in assay [3] (listed as 9 Diastereomer 1) it was 300 nM.

In general, IC50 refers to the point on the concentration scale where inhibition reaches its midpoint.
